According to article PMC3257251, “A Whole Cell Assay to Measure Caspase-6 Activity by Detecting Cleavage of Lamin A/C” (PLoS ONE, 2012):
Peptide text beside a SMILES is read from it. * marks the point of attachment. Cbz = O=C(OCc1ccccc1)*; CH2F = FC*

target: T1, Caspase-6 (Homo sapiens, UniProt P55212); test: Enzymatic caspase activity assay, (Ac-VEID)2-Rh110 substrate; settings: read-out: Enzymatic Caspase-6 IC50; 15 minute enzyme/inhibitor preincubation and 40 minute enzyme reaction
T1 sequence (P55212 24-179 limits assumed): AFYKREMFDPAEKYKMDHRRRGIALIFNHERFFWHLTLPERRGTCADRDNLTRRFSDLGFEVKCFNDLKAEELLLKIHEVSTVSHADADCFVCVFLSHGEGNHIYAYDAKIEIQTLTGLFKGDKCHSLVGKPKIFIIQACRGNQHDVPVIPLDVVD
T1 sequence (P55212 194-293 limits assumed): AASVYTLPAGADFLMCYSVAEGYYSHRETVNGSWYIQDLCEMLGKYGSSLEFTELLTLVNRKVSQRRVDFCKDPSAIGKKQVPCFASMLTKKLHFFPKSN
Protocol: (§1) All peptide inhibitors were serially diluted in DMSO prior to cross dilution in assay buffer (50 mM HEPES pH 7.2, 25 mM MgSO4, 0.5 mM EGTA, 5 mM Glutathione, 0.01% Triton X-100 containing 0.1% Bovine Gamma Globulin (BGG)). […] Rhodamine-labeled bivalent tetrapeptide substrates were obtained from Anaspec (Fremont, CA) and used as follows: 300 pM caspase-3 reacted with 1 µM (Ac-DEVD)2 -Rh110, 1 nM caspase-6 reacted with 5 µM (Ac-VEID)2 -Rh110, 5 pM caspase-7 reacted with 1 µM (Ac-DEVD)2 -Rh110. Enzyme and inhibitor were preincubated for 15 minutes prior to the addition of substrate to initiate the enzymatic reaction.

Row | Molecule | IC50 [nM]
1 | COC(=O)C[C@H](NC(=O)[C@H](C)NC(=O)[C@@H](NC(=O)OCc1ccccc1)C(C)C)C(=O)CF [z-VAD-FMK] (Cbz-Val-Ala-Asp(OMe)-CH2F) | 2110
2 | z-EID-TFPM | 8.4

Now from value to molecule:

Row | IC50 [nM] | Molecule
3 | 129 | CC[C@H](C)[C@H](NC(=O)[C@H](CCC(=O)OC)NC(=O)[C@@H](NC(=O)OCc1ccccc1)C(C)C)C(=O)N[C@@H](CC(=O)OC)C(=O)CF [z-VEID-FMK] (Cbz-VE(OMe)ID(OMe)-CH2F)
4 | 19 | z-ID-TFPM
5 | < 1.7 | z-VEID-tetrafluorophenoxymethyl [z-VEID-TFPM]

same assay, conditions: read-out: Mean IC50 Caspase-6; apparent IC50; 15 minute enzyme/inhibitor preincubation and 40 minute enzyme reaction; 1 nM caspase-6, 5 µM (Ac-VEID)2-Rh110

Row | IC50 [nM] | Molecule
6 | 2110 | COC(=O)C[C@H](NC(=O)[C@H](C)NC(=O)[C@@H](NC(=O)OCc1ccccc1)C(C)C)C(=O)CF [z-VAD-FMK] (Cbz-Val-Ala-Asp(OMe)-CH2F)
7 | 129 | CC[C@H](C)[C@H](NC(=O)[C@H](CCC(=O)OC)NC(=O)[C@@H](NC(=O)OCc1ccccc1)C(C)C)C(=O)N[C@@H](CC(=O)OC)C(=O)CF [z-VEID-FMK] (Cbz-VE(OMe)ID(OMe)-CH2F)

Row | Molecule | IC50 [nM]
8 | CC[C@H](C)[C@H](NC(C)=O)C(=O)N[C@@H](CCC(=O)O)C(=O)N[C@H](C(=O)N[C@H](C=O)CC(=O)O)[C@@H](C)O [Ac-IETD-CHO] (Ac-IETD-aldehyde) | 53.2

target: T2, caspase-6 cleavage of lamin A/C in SKNAS cells (Homo sapiens, UniProt P55212); test: Cell-based ELISA for cleaved lamin A/C (cellular lamin cleavage assay); settings: SKNAS cells, inhibitor 30 min before 3 µM staurosporine for 6 hours; small lamin A/C cleavage product
T2 construct: monitors cellular caspase-6 cleavage of endogenous lamin A/C under apoptotic conditions; endogenous in cells; host or cells: SKNAS (ATCC #CRL-2137)
T2 sequence (P55212 24-179 limits assumed): T1 sequence (P55212 24-179 limits assumed)
T2 sequence (P55212 194-293 limits assumed): T1 sequence (P55212 194-293 limits assumed)
Protocol: The following day, cell culture medium was aspirated and replaced with 20 µl/well basal medium (DMEM with no supplements added). […] 5 µl of diluted inhibitor was delivered to each well and incubated for 30 minutes in a cell culture incubator prior to addition of 5 µl/well staurosporine in basal medium. The final DMSO concentration in the assay was 0.1% and the final staurosporine concentration was 3 µM (or indicated concentration). […] Cells were permeabilized by the addition of 50 µl 0.2% Triton X-100 in PBS for 15 minutes at room temperature. […] The following day, primary antibody was aspirated and the wells washed 3 times with 100 µl TBST. Secondary antibody (donkey anti-rabbit IgG, HRP-conjugated (GE Healthcare #NA934V)) was delivered at 1∶2500 dilution in blocking agent (20 µl/well) and incubated 1 hour at room temperature.
In order to develop an assay more amenable to inhibitor screening, this antibody detection was adapted to a plate-based non-denaturing assay. SKNAS cells cultured in 384-well plates were treated with 3 µM staurosporine for six hours prior to fixation with 4% paraformaldehyde and permeabilization with 0.2% Triton X-100. Binding of the two antibodies that recognize neo-epitopes on the large or small lamin degradation products was detected by horseradish-peroxidase-labeled secondary antibody and subsequent chemiluminescent substrate addition (see methods for details).

Row | Molecule | IC50 [nM]
9 | COC(=O)C[C@H](NC(=O)[C@H](C)NC(=O)[C@@H](NC(=O)OCc1ccccc1)C(C)C)C(=O)CF [z-VAD-FMK] (Cbz-Val-Ala-Asp(OMe)-CH2F) | 44000
10 | z-EID-TFPM | 21000

Other lines, results leading:

Row | IC50 [nM] | Molecule
11 | 180 | z-ID-TFPM
12 | 12000 | z-VEID-tetrafluorophenoxymethyl [z-VEID-TFPM]

same assay, conditions: cellular lamin cleavage IC50 versus enzymatic caspase-6 IC50

Row | fold lower potency in cellular lamin assay than in enzymatic assay [fold] | Molecule
13 | ~10 | z-ID-TFPM

system: SKNAS cells; test: Mass spectrometry analysis of intracellular inhibitor accumulation; settings: 10 µM inhibitor, 1 hour at 37°C, LC/MS/MS
Protocol: SKNAS cells were seeded in 12-well plates at a concentration of 5×10^6 cells/mL and allowed to adhere overnight prior to the experiment. Caspase inhibitors (10 µM) in Hank's balance Salt Solution (HBSS; Invitrogen) buffer containing 10 mM HEPES (Invitrogen) and a final DMSO concentration of 0.1% were added in triplicate to the cells. Non specific binding (NSB) samples were prepared by immediately aspirating the dose solution and washing the cells with 1 mL of ice cold HBSS. Cells for the accumulation experiment were incubated for 1 hour at 37°C with inhibitors prior to washing with 1 mL ice cold HBSS. Analytical internal standard (200 nM propranolol (Sigma) in 100% acetonitrile (ACN) with 0.1% formic acid) and blank HBSS buffer were sequentially added to the 12-well plates containing the NSB and accumulation samples. Reference samples for each inhibitor were made by adding internal standard to dose solution and cells incubated for 1 hour at 37°C. The cells from all experiments were scraped from the bottom of the 12 well plates, sonicated for approximately 30 minutes, and centrifuged for 10 minutes at 3000 x g prior to LC/MS/MS analysis.
The LC/MS/MS system consisted of an AB Sciex API4000 mass spectrometer (AB Sciex, Foster City, CA), an Aria LX2 multiplexing LC system (Thermo Fisher Scientific, Waltham, MA) and a CTC Analytics autosampler (Leap Technologies, Carrboro, NC). An ESI Spray source in the positive ion mode and multiple reaction monitoring (MRM) were used to quantitate peak areas. The LC separations were performed on a 50×2.0 mm Gemini C18 analytical column (Phenomenex, Torrance, CA). The mobile phases consisted of water with 0.1% formic acid (mobile phase A) and ACN with 0.1% formic acid (mobile phase B). Mass spectrometer data were processed using Analyst software version 1.4.2.

Row | % cell accumulation [%] | Molecule
14 | 1.97 | z-ID-TFPM
15 | 0.17 | z-VEID-tetrafluorophenoxymethyl [z-VEID-TFPM]

target: T3, Caspase-7 (Homo sapiens, UniProt P55210); test: Enzymatic caspase activity assay, (Ac-DEVD)2-Rh110 substrate; settings: read-out: Mean IC50 Caspase-7; apparent IC50; 15 minute preincubation and 40 minute reaction; 5 pM caspase-7, 1 µM (Ac-DEVD)2-Rh110
T3 sequence (P55210 24-198 limits assumed): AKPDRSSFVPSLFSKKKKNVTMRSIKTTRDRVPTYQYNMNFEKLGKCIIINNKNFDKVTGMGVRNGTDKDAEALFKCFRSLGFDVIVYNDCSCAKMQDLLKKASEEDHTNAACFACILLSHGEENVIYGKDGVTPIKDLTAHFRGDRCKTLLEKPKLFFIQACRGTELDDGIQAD
T3 sequence (P55210 207-303 limits assumed): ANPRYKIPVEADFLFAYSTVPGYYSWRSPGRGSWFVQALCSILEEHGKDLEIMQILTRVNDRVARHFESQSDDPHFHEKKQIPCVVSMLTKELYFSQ
Protocol: as §1

Row | IC50 [nM] | Molecule
16 | 74.7 | COC(=O)C[C@H](NC(=O)[C@H](C)NC(=O)[C@@H](NC(=O)OCc1ccccc1)C(C)C)C(=O)CF [z-VAD-FMK] (Cbz-Val-Ala-Asp(OMe)-CH2F)
17 | 648 | CC[C@H](C)[C@H](NC(=O)[C@H](CCC(=O)OC)NC(=O)[C@@H](NC(=O)OCc1ccccc1)C(C)C)C(=O)N[C@@H](CC(=O)OC)C(=O)CF [z-VEID-FMK] (Cbz-VE(OMe)ID(OMe)-CH2F)

Row | Molecule | IC50 [nM]
18 | CC[C@H](C)[C@H](NC(C)=O)C(=O)N[C@@H](CCC(=O)O)C(=O)N[C@H](C(=O)N[C@H](C=O)CC(=O)O)[C@@H](C)O [Ac-IETD-CHO] (Ac-IETD-aldehyde) | 553

target: T4, Caspase-3 (Homo sapiens, UniProt P42574); test: as above; assay type: biochemical; settings: apparent IC50; 15 minute preincubation and 40 minute reaction; 300 pM caspase-3, 1 µM (Ac-DEVD)2-Rh110
T4 construct: made in house; host or cells: E. coli
T4 sequence (P42574 29-175 limits assumed): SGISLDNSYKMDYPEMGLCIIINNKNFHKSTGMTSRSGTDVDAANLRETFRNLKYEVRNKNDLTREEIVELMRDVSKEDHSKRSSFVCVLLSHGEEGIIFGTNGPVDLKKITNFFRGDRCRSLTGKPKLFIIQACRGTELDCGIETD
T4 sequence (P42574 176-277 limits assumed): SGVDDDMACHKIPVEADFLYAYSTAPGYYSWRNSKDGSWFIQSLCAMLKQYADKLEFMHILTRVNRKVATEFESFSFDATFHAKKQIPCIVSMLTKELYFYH
Protocol: as §1

Row | IC50 [nM] | Molecule
19 | 168 | COC(=O)C[C@H](NC(=O)[C@H](C)NC(=O)[C@@H](NC(=O)OCc1ccccc1)C(C)C)C(=O)CF [z-VAD-FMK] (Cbz-Val-Ala-Asp(OMe)-CH2F)
20 | 45.1 | CC[C@H](C)[C@H](NC(=O)[C@H](CCC(=O)OC)NC(=O)[C@@H](NC(=O)OCc1ccccc1)C(C)C)C(=O)N[C@@H](CC(=O)OC)C(=O)CF [z-VEID-FMK] (Cbz-VE(OMe)ID(OMe)-CH2F)

Row | Molecule | IC50 [nM]
21 | CC[C@H](C)[C@H](NC(C)=O)C(=O)N[C@@H](CCC(=O)O)C(=O)N[C@H](C(=O)N[C@H](C=O)CC(=O)O)[C@@H](C)O [Ac-IETD-CHO] (Ac-IETD-aldehyde) | 75.8
